Assay [1] has as its system TPTX rats. The assay can be described thus: Single administration study in TPTX rats. To be noted: TPTX rats, single oral administration. The assay is classed as in vivo, rat. As to the method: TPTX was carried out in 6-week-old female Crl:CD(SD) rats (Charles River Laboratories). Rats with serum Ca levels of <8.0 mg dl^−1 at 5 days after surgery were used for the experiment. The rats were divided into six groups, each with a similar mean value of serum Ca levels and body weight. TPTX rats were treated once orally (vehicle or PCO371 at 1.3, 6.5 or 33 mg kg^−1) or subcutaneously (vehicle or hPTH(1–84) (Chugai Pharmaceutical) at 9 nmol kg^−1). Six TPTX rats were assigned to each dose group. The sample size was determined based on previous experiments and a published study with hPTHs and LA-PTH in our laboratories[24] (n=5–6). Vehicle for PCO371 was the same as in the OVX rat study, and phosphate-citrate buffer (pH 6.0) was used as vehicle for hPTH(1–84). Under isoflurane anaesthesia, jugular vein blood was collected immediately before and at 1, 2, 6, 10 and 24 h after administrations to measure serum Ca (o-CPC method, Wako Pure Chemical Industries) and Pi levels (xanthine oxidase method, Wako Pure Chemical Industries).
In another experiment, the effects of a single treatment with PCO371 or hPTH(1–34) on serum Ca and Pi in TPTX rats (6-week-old) were evaluated at the dose of 3, 9.5 or 30 mg kg^−1 (PCO371, p.o.) or 9 nmol kg^−1 (hPTH(1–34), s.c.) according to the same method as that described above.

Assay [2] addresses T1, hPTHR1–hPTHR2 chimeric receptors (C1, C2, C3) and mutant hPTHR1s (M24, M25, M26, M414V, P415L, L416V) (Homo sapiens, UniProt Q03431, L416V/M414V/P415L).
T1 construct: expressed in transfected cells; host or cells: COS-7 (transient)
T1 sequence (Q03431 27-593 E93Y/D94P/K95Y/E96D/A97V/T99D/G100Y/S101A/M414V/P415L/L416V): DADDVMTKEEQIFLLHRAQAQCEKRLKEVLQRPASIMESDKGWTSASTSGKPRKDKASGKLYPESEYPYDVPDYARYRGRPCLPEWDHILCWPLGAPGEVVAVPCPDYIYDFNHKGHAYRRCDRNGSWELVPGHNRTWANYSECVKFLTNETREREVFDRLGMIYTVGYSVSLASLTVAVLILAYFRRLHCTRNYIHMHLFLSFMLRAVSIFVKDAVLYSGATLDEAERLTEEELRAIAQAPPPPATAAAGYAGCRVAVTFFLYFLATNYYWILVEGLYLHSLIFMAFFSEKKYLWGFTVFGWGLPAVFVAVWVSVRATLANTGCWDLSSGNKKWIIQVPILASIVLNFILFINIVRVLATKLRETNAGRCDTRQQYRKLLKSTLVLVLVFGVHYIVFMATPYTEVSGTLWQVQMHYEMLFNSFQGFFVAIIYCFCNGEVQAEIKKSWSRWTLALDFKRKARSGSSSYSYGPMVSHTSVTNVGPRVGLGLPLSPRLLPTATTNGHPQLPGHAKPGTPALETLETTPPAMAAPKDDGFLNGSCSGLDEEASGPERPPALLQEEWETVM
The assay is classed as cell-based. The conditions noted are these: mutant receptor M25 (M414, P415, L416 replaced). As to the method:
(§1) COS-7 cells (ATCC) were seeded into a 96-well flat-bottomed plate (1.4 × 10^4 cells per 100 μl per well) and incubated overnight. The next day, the COS-7 cells were transfected by adding 10 μl of a mixture of hPTHR1, hPTHR2 or mutant hPTHR1 plasmid, rat PTHR1 or rat PTHR2 plasmid, or empty vector (0.1 μg per well), FuGENE HD Transfection Reagent (0.4 μl per well, Promega), and Opti-MEM I Reduced Serum Medium (10 μl per well, Life Technologies) to each well. […] The plate was placed in a 37 °C constant-temperature water bath for 20 min to allow the reaction to proceed. After incubation, the liquid in the wells was discarded, the wells were washed with the assay medium (100 μl per well), and the plate was frozen on dry ice. Next, 40 μl of 50 mmol l^−1 HCl was added to each well, and the plate was stored in a freezer set at ≤−20 °C. The cAMP concentrations were measured by using a cAMP EIA kit (GE Healthcare). EC50 values were determined from three independent experiments in duplicate by a non-linear regression Emax model (JMP ver.9.0.2, SAS Institute). The geometric mean of the EC50 values obtained in three experiments in duplicate was calculated using Microsoft Office Excel 2007. […]

The subject of assay [3] is hPTHR1–hPTHR2 chimeric receptors (C1, C2, C3) and mutant hPTHR1s (M24, M25, M26, M414V, P415L, L416V). The assay is classed as cell-based, human. As for the experimental part:
as §1

For assay [4], the target named is T2, hPTHR1–hPTHR2 chimeric receptors (C1, C2, C3) and mutant hPTHR1s (M24, M25, M26, M414V, P415L, L416V) (Homo sapiens, UniProt Q03431, A426C/A97V/D353E/D94P/DEL429-429/E431S/E93Y/E96D/G100Y/G350R/I363Y/K359I/K95Y/L436G/L446F/M425V/M445L/N348D/N358D/Q438E/Q440R/S101A/S341V/S356A/S370A/S433T/T349A/T427L/T430H/T435L/T99D/V334A/V338A/V340A/V342A/V365A/V372G/V432F/V439I/Y443C).
T2 construct: expressed in transfected cells; host or cells: COS-7 (transient)
T2 sequence (Q03431 other isoform, or with tags, fused parts or gaps with the stated changes): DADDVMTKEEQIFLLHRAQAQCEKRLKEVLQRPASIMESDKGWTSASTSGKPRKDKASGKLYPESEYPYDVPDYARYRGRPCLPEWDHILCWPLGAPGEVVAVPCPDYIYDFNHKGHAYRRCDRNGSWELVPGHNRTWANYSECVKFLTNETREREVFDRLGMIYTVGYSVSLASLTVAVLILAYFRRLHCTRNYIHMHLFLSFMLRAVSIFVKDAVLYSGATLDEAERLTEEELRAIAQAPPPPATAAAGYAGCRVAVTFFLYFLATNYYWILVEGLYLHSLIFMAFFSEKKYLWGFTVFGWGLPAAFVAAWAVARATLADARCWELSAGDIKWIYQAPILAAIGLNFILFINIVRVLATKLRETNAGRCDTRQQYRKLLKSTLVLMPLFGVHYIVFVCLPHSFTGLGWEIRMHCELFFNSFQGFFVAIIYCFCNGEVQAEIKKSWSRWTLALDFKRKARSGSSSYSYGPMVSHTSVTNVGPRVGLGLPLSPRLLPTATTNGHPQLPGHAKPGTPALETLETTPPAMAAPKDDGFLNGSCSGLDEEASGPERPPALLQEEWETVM
It is filed as cell-based. To be noted: cells expressing C3. As to the method:
as §1

The values that follow come from PMC5120204, “Identification of an orally active small-molecule PTHR1 agonist for the treatment of hypoparathyroidism” (Nature Communications, 2016).

As to `Cc1cc(N2C(=O)NC(=O)C2(C)C)cc(C)c1CCS(=O)(=O)N1CCC2(CC1)N=C(c1ccc(OC(F)(F)F)cc1)NC2=O` [PCO371, 1-{3,5-dimethyl-4-[2-({4-oxo-2-[4-(trifluoromethoxy)phenyl]-1,3,8-triazaspiro[4.5]dec-1-en-8-yl}sulfonyl)ethyl]phenyl}-5,5-dimethylimidazolidine-2,4-dione], in assay [1], the “serum Ca” value was “dose-dependently increased” and the “serum Pi” value was “decreased”. For the same molecule, the cAMP increase result in assay [2] is reported as “lack of cAMP increase”. Moreover, in assay [3] (cells expressing C1 or C2), the cAMP entry is given as “did not do so”. For the same molecule, the cAMP response result in assay [3] (single replacements M414V and L416V) is reported as “only modest effects”. Moreover, the cAMP response entry in assay [4] is listed as “responded well”.
